For 9 compounds, IC50 results are on record in ChEMBL document CHEMBL1127828, “The discovery of an unusually selective and novel cocaine analog: difluoropine. Synthesis and inhibition of binding at cocaine recognition sites” (J Med Chem, 1994).

For the test, the target named is Sodium-dependent serotonin transporter (Homo sapiens, UniProt P31645). As to the kind of experiment: Binding affinity of [3H]citalopram for serotonin transporter in monkey. On the set-up: species or system Cercopithecidae.
Sodium-dependent serotonin transporter, sequence (P31645 whole entry): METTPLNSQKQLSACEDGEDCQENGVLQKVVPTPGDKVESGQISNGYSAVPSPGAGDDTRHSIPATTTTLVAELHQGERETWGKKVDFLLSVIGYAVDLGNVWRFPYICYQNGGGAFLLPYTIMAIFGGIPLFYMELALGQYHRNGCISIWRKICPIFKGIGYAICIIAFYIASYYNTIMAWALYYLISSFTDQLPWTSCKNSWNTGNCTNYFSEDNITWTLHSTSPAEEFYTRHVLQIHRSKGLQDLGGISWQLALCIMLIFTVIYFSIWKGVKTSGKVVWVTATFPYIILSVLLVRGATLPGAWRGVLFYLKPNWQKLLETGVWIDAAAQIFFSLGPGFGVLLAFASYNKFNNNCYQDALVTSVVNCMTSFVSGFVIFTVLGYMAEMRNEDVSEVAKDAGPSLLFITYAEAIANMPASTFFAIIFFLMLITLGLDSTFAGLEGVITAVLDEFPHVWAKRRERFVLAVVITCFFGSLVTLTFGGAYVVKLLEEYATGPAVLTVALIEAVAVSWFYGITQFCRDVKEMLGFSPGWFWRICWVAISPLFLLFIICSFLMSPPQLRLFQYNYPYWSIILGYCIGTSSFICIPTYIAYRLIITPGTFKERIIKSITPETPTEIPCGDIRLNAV
In general, IC50 refers to the concentration that gives 50% inhibition. As to `COC(=O)C1C2CC[C@H](C[C@H]1OC(c1ccc(F)cc1)c1ccc(F)cc1)N2C` (stereo in doubt; R-8), the concentration for half-maximal inhibition (IC50) was 1.98 µM.

Take `COC(=O)C1C2CC[C@H](C[C@@H]1OC(c1ccc(F)cc1)c1ccc(F)cc1)N2C` (stereo in doubt; R-9): the IC50 was 1.46 µM.

Take `COC(=O)C1C2CC[C@H](C[C@H]1OC(c1ccc(F)cc1)c1ccc(F)cc1)N2C` (stereo in doubt; S-10): the IC50 worked out at 4.93 µM.

For `COC(=O)C1C2CC[C@H](C[C@H]1OC(c1ccc(F)cc1)c1ccc(F)cc1)N2C` (stereo in doubt; R-10), the 50% inhibitory concentration (IC50) turned out to be 9.15 µM.

`COC(=O)C1C2CC[C@H](C[C@@H]1OC(c1ccc(F)cc1)c1ccc(F)cc1)N2C` (stereo in doubt; R-7) displayed a half-maximal inhibitory concentration (IC50) of 5.5 µM.

As for `COC(=O)[C@@H]1[C@H]2CCC(C[C@H]1OC(c1ccc(F)cc1)c1ccc(F)cc1)N2C`, the IC50 was found to be 1.83 µM.

Turning to `COC(=O)C1C2CC[C@H](C[C@H]1OC(c1ccc(F)cc1)c1ccc(F)cc1)N2C` (stereo in doubt; S-7), the IC50 is 4.09 µM.

Regarding `COC(=O)[C@@H]1C2CCC(C[C@@H]1OC(c1ccc(F)cc1)c1ccc(F)cc1)N2C` (some centres undefined), the half-maximal inhibitory concentration (IC50) turned out to be 3.53 µM.

`COC(=O)C1C2CC[C@H](C[C@@H]1c1ccc(I)cc1)N2C` (some centres undefined): the half-maximal inhibitory concentration (IC50) was 0.00253 µM.
